Converted amounts (≈) assume the structure as drawn. Values belong to the molecule of their own block, whether it stands above or below them.
Legend:
Aspergillus ochraceus = assay: Antifungal activity against Aspergillus ochraceus assessed as diameter of inhibition zone by disc diffusion method; type: functional
Penicillium chrysogenum [1] = assay: Antifungal activity against Penicillium chrysogenum assessed as diameter of inhibition zone by disc diffusion method; type: functional
Staphylococcus aureus [2] = assay: Antibacterial activity against Staphylococcus aureus assessed as bacterial growth inhibition by broth microdilution method; type: functional
Escherichia coli [3] = assay: Antibacterial activity against Escherichia coli assessed as bacterial growth inhibition by broth microdilution method; type: functional
Klebsiella pneumoniae [4] = assay: Antibacterial activity against Klebsiella pneumoniae assessed as bacterial growth inhibition by broth microdilution method; type: functional
Pseudomonas aeruginosa [5] = assay: Antibacterial activity against Pseudomonas aeruginosa assessed as bacterial growth inhibition by broth microdilution method; type: functional
[6] = Antioxidant activity assessed as NO radical scavenging activity; type: functional
HeLa = assay: Anticancer activity against human HeLa cells assessed as reduction in cell viability incubated for 48 hrs by MTT assay; type: functional, cell-based
MCF7 [7] = assay: cells; settings: Homo sapiens, MCF7, 48 h
Staphylococcus aureus [8] = assay: Antibacterial activity against Staphylococcus aureus NCIM 2654 assessed as diameter of inhibition zone incubated for 24 hrs by agar well diffusion method; type: functional
[9] = Antioxidant activity assessed as DPPH radical scavenging activity at 12 ug incubated for 30 mins by spectrophotometric analysis; type: functional; settings: dose 12.0 µg
Staphylococcus aureus [10] = assay: Antimicrobial activity against Staphylococcus aureus assessed as diameter of inhibition zone at 1 mg/ml incubated for 48 hrs by agar disk diffusion method; type: functional; settings: read-out: DIZ
Bacillus cereus [11] = assay: Antimicrobial activity against Bacillus cereus assessed as diameter of inhibition zone at 1 mg/ml incubated for 48 hrs by agar disk diffusion method; type: functional; settings: read-out: DIZ
Escherichia coli [12] = assay: Antimicrobial activity against Escherichia coli assessed as diameter of inhibition zone at 1 mg/ml incubated for 48 hrs by agar disk diffusion method; type: functional; settings: read-out: DIZ
Klebsiella pneumoniae [13] = assay: Antimicrobial activity against Klebsiella pneumoniae assessed as diameter of inhibition zone at 1 mg/ml incubated for 48 hrs by agar disk diffusion method; type: functional; settings: read-out: DIZ
Pseudomonas aeruginosa [14] = assay: Antimicrobial activity against Pseudomonas aeruginosa assessed as diameter of inhibition zone at 1 mg/ml incubated for 48 hrs by agar disk diffusion method; type: functional; settings: read-out: DIZ
Aspergillus niger = assay: Antifungal activity against Aspergillus niger assessed as diameter of inhibition zone at 1 mg/ml incubated for 72 to 91 hrs by agar disk diffusion method; type: functional; settings: time 72-91 hrs, read-out: DIZ
Bacillus cereus [15] = assay: Antimicrobial activity against Bacillus cereus ATCC14579 assessed as diameter of inhibition zone at 20 mg/ml incubated for 24 hrs by disk diffusion method; type: functional; settings: read-out: DIZ
Staphylococcus aureus [16] = assay: Antimicrobial activity against Staphylococcus aureus NCTC7447 assessed as diameter of inhibition zone at 20 mg/ml incubated for 24 hrs by disk diffusion method; type: functional; settings: read-out: DIZ
Klebsiella pneumoniae [17] = assay: Antimicrobial activity against Klebsiella pneumoniae UC57 assessed as diameter of inhibition zone at 20 mg/ml incubated for 24 hrs by disk diffusion method; type: functional; settings: read-out: DIZ
Pseudomonas aeruginosa [18] = assay: Antimicrobial activity against Pseudomonas aeruginosa ATCC 27853 assessed as diameter of inhibition zone at 20 mg/ml incubated for 24 hrs by disk diffusion method; type: functional; settings: read-out: DIZ
Escherichia coli [19] = assay: Antimicrobial activity against Escherichia coli ATCC 14169 assessed as diameter of inhibition zone at 20 mg/ml incubated for 24 hrs by disk diffusion method; type: functional; settings: read-out: DIZ
Staphylococcus aureus [20] = assay: Antibacterial activity against Staphylococcus aureus assessed as diameter of inhibition zone; type: functional
Bacillus subtilis = assay: Antibacterial activity against Bacillus subtilis assessed as diameter of inhibition zone; type: functional
Escherichia coli [21] = assay: Antibacterial activity against Escherichia coli assessed as diameter of inhibition zone; type: functional
Salmonella typhimurium = assay: Antibacterial activity against Salmonella typhimurium assessed as diameter of inhibition zone; type: functional, Salmonella enterica subsp. enterica serovar Typhimurium
Urease = Urease (Canavalia ensiformis, UniProt P07374); assay: Inhibition of jack bean urease by phenol red method
Sequence of Urease (P07374 whole entry): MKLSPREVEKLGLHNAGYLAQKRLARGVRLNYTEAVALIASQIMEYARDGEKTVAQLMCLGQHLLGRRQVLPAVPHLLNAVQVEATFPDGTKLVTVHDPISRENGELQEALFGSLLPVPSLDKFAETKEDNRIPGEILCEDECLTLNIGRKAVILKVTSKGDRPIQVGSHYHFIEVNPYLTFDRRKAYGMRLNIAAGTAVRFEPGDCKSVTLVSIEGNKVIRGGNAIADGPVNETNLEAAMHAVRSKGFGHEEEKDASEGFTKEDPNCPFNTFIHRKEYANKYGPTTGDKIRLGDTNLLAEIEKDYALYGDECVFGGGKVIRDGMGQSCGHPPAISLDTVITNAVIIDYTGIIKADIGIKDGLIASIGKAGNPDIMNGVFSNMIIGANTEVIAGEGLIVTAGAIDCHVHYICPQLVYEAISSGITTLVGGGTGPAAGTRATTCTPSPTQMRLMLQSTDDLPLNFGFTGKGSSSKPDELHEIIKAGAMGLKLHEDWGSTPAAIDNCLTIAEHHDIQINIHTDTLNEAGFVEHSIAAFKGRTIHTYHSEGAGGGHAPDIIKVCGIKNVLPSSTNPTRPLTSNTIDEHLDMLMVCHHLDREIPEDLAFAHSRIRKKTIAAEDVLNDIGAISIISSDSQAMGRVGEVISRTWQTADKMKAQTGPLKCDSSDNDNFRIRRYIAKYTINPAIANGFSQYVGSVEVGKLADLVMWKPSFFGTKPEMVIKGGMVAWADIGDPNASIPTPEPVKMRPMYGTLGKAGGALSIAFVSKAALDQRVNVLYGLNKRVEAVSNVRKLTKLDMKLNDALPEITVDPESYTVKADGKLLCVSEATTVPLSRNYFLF

Capra hircus = species: Capra hircus; assay: Inhibition of goat lens AR at 100 uM incubated for 10 mins in presence of NADPH by spectroscopic analysis
[22] = Antioxidant activity assessed as DPPH radical scavenging activity incubated for 20 mins by spectrophotometric analysis; type: functional; design: concentration or dose not given beside the values
[23] = Antioxidant activity assessed as hydroxyl radical scavenging activity incubated for 5 mins by spectrophotometric analysis; type: functional; design: concentration or dose not given beside the values
[24] = Antioxidant activity assessed as H2O2 radical scavenging activity; type: functional
Penicillium chrysogenum [25] = assay: Antifungal activity against Penicillium chrysogenum assessed as diameter of inhibition zone at 1 mg/ml incubated for 72 to 91 hrs by agar disk diffusion method; type: functional; settings: time 72-91 hrs, read-out: DIZ
MCF7 [26] = assay: cells; type: functional, cell-based; settings: Homo sapiens, MCF7, 96 h
HCT-116 = assay: Anticancer activity against human HCT-116 cells assessed as reduction in cell viability incubated for 96 hrs by MTT assay; type: functional, cell-based; settings: HCT-116, 96 h

SMILES: COc1ccc(C2c3c(ncn(C)c3=N)Oc3ccc4cc(Br)ccc4c32)cc1 (stereo unspecified)
- diameter of the inhibition zone (DIZ) (Aspergillus ochraceus): 17 mm
- diameter of the inhibition zone (DIZ) (Penicillium chrysogenum [1]): 13 mm

- MIC (Staphylococcus aureus [2]): 6.25 µg/mL (≈ 15.6 µM)
- MIC (Escherichia coli [3]): 6.25 µg/mL (≈ 15.6 µM)
- MIC (Klebsiella pneumoniae [4]): 6.25 µg/mL (≈ 15.6 µM)
- MIC (Pseudomonas aeruginosa [5]): 6.25 µg/mL (≈ 15.6 µM)
SMILES: CCO/C=N/C1=C(C#N)C(c2ccccc2Cl)c2c(n(C)c(=O)n(C)c2=O)O1 (stereo unspecified)

- IC50 [6]: 50.32 µg/mL (≈ 136 µM)
SMILES: Nc1ncnc2c1C(c1ccc(Br)cc1)c1ccc(O)cc1O2 (stereo unspecified)

- IC50 (HeLa): 59 µM
- IC50 (MCF7 [7]): 38 µM
SMILES: O=C1Nc2c(c(=O)oc3ccccc23)C(c2ccc(Br)cc2)N1 (stereo unspecified)

SMILES: Cc1n[nH]c2c1C(c1cccc([N+](=O)[O-])c1)c1c([nH]c(=O)[nH]c1=O)O2 (stereo unspecified)
- diameter of the inhibition zone (DIZ) (Staphylococcus aureus [8]): 12 mm
- Activity [9]: 90.3%

- IC50 (HeLa): 46 µM
- IC50 (MCF7 [7]): 33 µM
SMILES: O=C1Nc2c(c(=O)oc3ccccc23)C(c2ccccc2)N1 (stereo unspecified)

SMILES: COC(=O)C1=C(N)Oc2[nH]c(=S)[nH]c(=O)c2C1c1ccccc1 (stereo unspecified)
- zone of inhibition at 1000 µg/mL (Staphylococcus aureus [10]): 12 mm
- zone of inhibition at 1000 µg/mL (Bacillus cereus [11]): 18 mm
- zone of inhibition at 1000 µg/mL (Escherichia coli [12]): 17 mm
- zone of inhibition at 1000 µg/mL (Klebsiella pneumoniae [13]): 21 mm
- zone of inhibition at 1000 µg/mL (Pseudomonas aeruginosa [14]): 19 mm
- zone of inhibition at 1000 µg/mL (Aspergillus niger): 12 mm

SMILES: N#CC1=C(N)Oc2[nH]c(=O)[nH]c(=O)c2C1c1ccc(Br)cc1 (stereo unspecified)
- zone of inhibition at 20000 µg/mL (Bacillus cereus [15]): 4 mm
- zone of inhibition at 20000 µg/mL (Staphylococcus aureus [16]): 12 mm
- zone of inhibition at 20000 µg/mL (Klebsiella pneumoniae [17]): 3 mm
- zone of inhibition at 20000 µg/mL (Pseudomonas aeruginosa [18]): 4 mm
- zone of inhibition at 20000 µg/mL (Escherichia coli [19]): 6 mm
- diameter of the inhibition zone (DIZ) (Staphylococcus aureus [20]): 18 mm
- diameter of the inhibition zone (DIZ) (Bacillus subtilis): 14 mm
- diameter of the inhibition zone (DIZ) (Escherichia coli [21]): 12 mm
- diameter of the inhibition zone (DIZ) (Salmonella typhimurium): 16 mm
- IC50 (Urease): 51.3 µM

SMILES: Cc1ccc(C2C(C#N)=C(N)Oc3[nH]c(=O)[nH]c(=O)c32)cc1 (stereo unspecified)
- diameter of the inhibition zone (DIZ) (Bacillus subtilis): 10 mm
- diameter of the inhibition zone (DIZ) (Salmonella typhimurium): 8 mm
- IC50 (Urease): 71.9 µM

- MIC (Staphylococcus aureus [2]): 6.25 µg/mL (≈ 15.8 µM)
- MIC (Escherichia coli [3]): 6.25 µg/mL (≈ 15.8 µM)
- MIC (Klebsiella pneumoniae [4]): 6.25 µg/mL (≈ 15.8 µM)
- MIC (Pseudomonas aeruginosa [5]): 6.25 µg/mL (≈ 15.8 µM)
SMILES: CCO/C=N/C1=C(C#N)C(c2ccccc2OC)c2c(n(C)c(=O)n(C)c2=O)O1 (stereo unspecified)

SMILES: COc1ccc(C2c3[nH]c(=O)[nH]c(=O)c3Oc3c2c(=O)oc2ccccc32)cc1 (stereo unspecified)
- inhibition (Capra hircus): 44%
- Activity [22]: 59.1%
- Activity [23]: 54.3%

SMILES: Cn1c2c(c(=O)n(C)c1=O)C(c1ccc(O)cc1)C(C#N)=C(N)O2 (stereo unspecified)
- IC50 (Urease): 108 µM

SMILES: N#CC1=C(N)Oc2[nH]c(=O)[nH]c(=O)c2C1c1cccc([N+](=O)[O-])c1 (stereo unspecified)
- zone of inhibition at 20000 µg/mL (Bacillus cereus [15]): 14 mm
- zone of inhibition at 20000 µg/mL (Staphylococcus aureus [16]): 7 mm
- zone of inhibition at 20000 µg/mL (Klebsiella pneumoniae [17]): 6 mm
- zone of inhibition at 20000 µg/mL (Pseudomonas aeruginosa [18]): 11 mm
- zone of inhibition at 20000 µg/mL (Escherichia coli [19]): 11 mm
- diameter of the inhibition zone (DIZ) (Staphylococcus aureus [20]): 14 mm
- diameter of the inhibition zone (DIZ) (Bacillus subtilis): 12 mm
- diameter of the inhibition zone (DIZ) (Escherichia coli [21]): 10 mm
- diameter of the inhibition zone (DIZ) (Salmonella typhimurium): 14 mm
- IC50 (Urease): 98.9 µM

- MIC (Staphylococcus aureus [2]): 6.25 µg/mL (≈ 15.8 µM)
- MIC (Escherichia coli [3]): 6.25 µg/mL (≈ 15.8 µM)
- MIC (Klebsiella pneumoniae [4]): 6.25 µg/mL (≈ 15.8 µM)
- MIC (Pseudomonas aeruginosa [5]): 6.25 µg/mL (≈ 15.8 µM)
SMILES: CCO/C=N/C1=C(C#N)C(c2ccc(OC)cc2)c2c(n(C)c(=O)n(C)c2=O)O1 (stereo unspecified)

SMILES: COC(=O)C1=C(N)Oc2[nH]c(=S)[nH]c(=O)c2C1c1cccc(Cl)c1 (stereo unspecified)
- zone of inhibition at 1000 µg/mL (Staphylococcus aureus [10]): 10 mm
- zone of inhibition at 1000 µg/mL (Bacillus cereus [11]): 12 mm
- zone of inhibition at 1000 µg/mL (Escherichia coli [12]): 8 mm
- zone of inhibition at 1000 µg/mL (Klebsiella pneumoniae [13]): 11 mm
- zone of inhibition at 1000 µg/mL (Pseudomonas aeruginosa [14]): 9 mm
- zone of inhibition at 1000 µg/mL (Aspergillus niger): 12 mm

SMILES: O=c1[nH]c2c(c(=O)[nH]1)Oc1c(c(=O)oc3ccccc13)C2c1ccc([N+](=O)[O-])cc1 (stereo unspecified)
- inhibition (Capra hircus): 39%
- Activity [22]: 59.1%
- Activity [23]: 54.3%

- IC50 [24]: 53.54 µg/mL (≈ 174 µM)
SMILES: CCOc1ccc(C2C(C#N)=C(N)Oc3cc(O)ccc32)cc1 (stereo unspecified)

SMILES: O=c1[nH]c2c(c(=O)[nH]1)Oc1c(c(=O)oc3ccccc13)C2c1ccccc1Cl (stereo unspecified)
- inhibition (Capra hircus): 46%
- Activity [22]: 72.4%
- Activity [23]: 67.2%

SMILES: Cc1n[nH]c2c1C(/C=C/c1ccccc1)c1c([nH]c(=O)[nH]c1=O)O2 (stereo unspecified)
- diameter of the inhibition zone (DIZ) (Staphylococcus aureus [8]): 16 mm
- Activity [9]: 90.3%

SMILES: COC(=O)C1=C(N)Oc2[nH]c(=S)[nH]c(=O)c2C1c1ccc(Cl)cc1 (stereo unspecified)
- zone of inhibition at 1000 µg/mL (Bacillus cereus [11]): 10 mm
- zone of inhibition at 1000 µg/mL (Escherichia coli [12]): 7 mm
- zone of inhibition at 1000 µg/mL (Klebsiella pneumoniae [13]): 3 mm
- zone of inhibition at 1000 µg/mL (Pseudomonas aeruginosa [14]): 13 mm
- zone of inhibition at 1000 µg/mL (Penicillium chrysogenum [25]): 0 mm

SMILES: COC(=O)C1=C(N)Oc2[nH]c(=S)[nH]c(=O)c2C1c1ccc(OC)cc1 (stereo unspecified)
- zone of inhibition at 1000 µg/mL (Staphylococcus aureus [10]): 16 mm
- zone of inhibition at 1000 µg/mL (Bacillus cereus [11]): 19 mm
- zone of inhibition at 1000 µg/mL (Escherichia coli [12]): 15 mm
- zone of inhibition at 1000 µg/mL (Klebsiella pneumoniae [13]): 18 mm
- zone of inhibition at 1000 µg/mL (Pseudomonas aeruginosa [14]): 16 mm
- zone of inhibition at 1000 µg/mL (Penicillium chrysogenum [25]): 12 mm

- IC50 [6]: 50.32 µg/mL (≈ 198 µM)
SMILES: N#CC1=C(N)Oc2cc(O)ccc2C1c1ccco1 (stereo unspecified)

SMILES: Cc1n[nH]c2c1C(c1cc([N+](=O)[O-])ccc1O)c1c([nH]c(=O)[nH]c1=O)O2 (stereo unspecified)
- Activity [9]: 89.1%

- IC50 (MCF7 [26]): 4.95 µM
- IC50 (HCT-116): 2.76 µM
SMILES: O=c1[nH]c2c(c(=O)[nH]1)C(c1cccs1)c1[nH]c(=S)[nH]c(=S)c1O2 (stereo unspecified)

- IC50 [24]: 53.54 µg/mL (≈ 173 µM)
- IC50 [6]: 50.32 µg/mL (≈ 162 µM)
SMILES: COc1cc(C2C(C#N)=C(N)Oc3cc(O)ccc32)ccc1O (stereo unspecified)
